Assay results published in patent publication US11718628B2, “SREBP inhibitors comprising a 6-membered central ring” (Capulus Therapeutics, LLC, priority 2018, dated 2023).

Tests used:
[1] = system: SREBP; assay: Reporter screening assay (SRE-luciferase reporter construct); type: cell-based; details: Homo sapiens; SREBPv1 reporter cell line HepG2, 24 hours, 0.01 uM to 10 uM; read-out: Reporter Screening IC50 (nM) Activity Range
Description: This assay was used to evaluate the effect on transcriptional activity SREBP of the compounds synthesized according to Examples 1-16, 20, and 22, using an SRE-luciferase reporter construct. On day 1, 10,000 cells were seeded in a 96 well (white) plate as per the plate map in Growth media without antibiotics. Cells were incubated at 37° C. for 8 hours. After 8 hours, cells were washed with DPBS for complete removal of FBS. DPBS was completely removed and Growth media was replaced with phenol free treatment medium (90 μl) with different FBS concentrations. The cells were then incubated at 37° C. for 24 hours with varying doses (0.01 uM to 10 uM) of compounds. Then a Luciferase assay was performed.
Reagents for performing Luciferase assay were stored at −20° C. To a tube of lyophilized assay substrate was added 1 mL Substrate Solvent and mixed well. The Substrate tube after reconstitution was covered with aluminum foil so as to keep it protected from light. The assay buffer was thawed to room temperature. To 20 mL Assay Buffer was added 200 μL of reconstituted 100× Substrate and mixed well. The reconstituted substrate as well as the assay solution (buffer+substrate) was protected from light throughout the procedure by keeping it covered with aluminum foil.
Using a multi-channel pipette, 100 μL Assay Solution (buffer+substrate) was added directly to each sample well in Plate 1, which was incubated for 30 min (plate was covered with aluminum foil). After 30 min incubation, the plate was read for total luminescence. Each well was read for 2 seconds in a plate luminometer. (Microplate reader Envision Microplate reader from Perkin Elmer). Precaution was taken to incubate plate exactly for 30 min prior to reading on the plate reader.
Materials: SREBPv1 Reporter cell line: HepG2—#32251. Growth Medium: MEM (Corning 10-010), 10% FBS, 1% GlutaMax (Invitrogen Catalog #35050061), […] (Invitrogen Catalog #A1113803) and 1% Penicillin-Streptomycin (Pen-Strep). Treatment Media: Phenol-free MEM (Invitrogen Catalog #51200-038) and 1% GlutaMax (Invitrogen Catalog #35050061). Luciferase Assay: LightSwitch Luciferase Assay Kit (Catalog #32032). LDH assay: Pierce LDH Cytotoxicity Assay Kit (Catalog #SD249616).

[2] = Kinetic solubility; type: physicochemical; details: pH 7.4 buffer, 24 h, room temperature, 1.0% DMSO
Description: Kinetic Solubility Procedure: A 10 mM stock solution of a compound was prepared in DMSO, then 4 μL of the stock was added to a deep well plate containing 396 μL of pH 7.4 buffer. The sample plate was vortexed at 800 rpm for 24 h on thermomixer at room temperature. The plate was sealed well during the incubation process. The DMSO content in the sample was 1.0%. The concentration of the evaluated compound in the final incubation was 100 μM. At the end of the incubation period, the sample plate was centrifuged at 4000 rpm for 10 min and analyzed in LC-UV against a calibration curve (CC). Values <10 μg/mL=Low; 10 to 60 μg/mL=Medium; >60 μg/mL=High.

[3] = Half-life in human liver microsomes; type: in vitro ADME; details: NADPH, 37° C.
Description: (§1) Half-life Human Microsomes: Compounds were evaluated for stability in human liver microsomes. A 10 mM stock solution of the compound being evaluated was prepared in DMSO and diluted with water:acetonitrile (1:1) to a concentration of 1 mM. A working concentration of 100 μM was prepared by further dilution with water:acetonitrile (1:1). To make the preincubation mixture, 2.5 μL of the diluted compound was combined with 75 μL of human liver microsomes at 3.33 mg/mL, and 85 μL of 100 mM potassium phosphate buffer, and this mixture was pre-incubated for 10 min at 37° C. To make the 60 minute mixture without cofactor, 32.5 μL of the preincubation mixture was combined with 17.5 μL of 100 mM potassium phosphate buffer and incubated for 60 min at 37° C. To make the 0 min sample with cofactor (NADPH), 16.25 μL of the preincubation mixture was combined with 200 μL of acetonitrile containing internal standard and 8.75 μL of cofactor (NADPH). To make the incubation mixture, 62 μL of cofactor (2.85 mM) was combined with the remaining incubation mixture, and incubated for 60 min at 37° C. To prepare the sample mixture to be evaluated, 25 μL incubation mixture was combined with 200 μL of acetonitrile containing internal standard and vortexed for 5 min at 1200 rpm, then centrifuged for 10 min at 4000 rpm. The supernatant was diluted 2 fold with water and injected on LC-MS/MS. The sample mixture was evaluated by LC-MS/MS using 10 mM ammonium acetate with 0.1% FA as the aqueous mobile phase, and methanol as the organic mobile phase.

[4] = Half-life in mouse liver microsomes; type: in vitro ADME
Description: as §1
Half-life Mouse Microsomes: Compounds were evaluated in mouse liver microsomes following a similar procedure as described above for human liver microsomes. A similar procedure could be used to evaluate compounds in rat liver microsomes.

[5] = In vivo pharmacokinetic properties in mice (IV and PO); parameters: species or system C57BL/6J mice; details: mice
Description: (§2) The in vivo pharmacokinetic properties of compounds by both intravenous and oral administration were evaluated in male Sprague Dawley rats or C57BL/6J mice.
(§3) Animals were housed in cages with clean bedding. Certified rodent diet was provided. Water was available ad libitum. Environmental controls for the animal room were set to maintain a temperature of 22° C. to 25° C., humidity of 40-70% RH, and a 12-hour light/12-hour dark cycle. Normal healthy animals certified by the attending veterinarian were selected and acclimatized for minimum three days prior to initiation of study.
(§4) To evaluate pharmacokinetic properties of intravenous delivery, male Sprague Dawley rats were administered 2.00 mg compound/kg animal weight through the tail vein. The concentration of the compound in the plasma of the animals was evaluated at 0.083, 0.25, 0.5, 1, 2, 4, 8, 12 and 24 hr by taking blood samples from the cannulated jugular vein. For the C5Bl/6J mice, blood samples were collected through a capillary, guided in retro-orbital plexus.
[…] The concentration of compound in the plasma of the animals was evaluated at 0.25, 0.5, 1, 2, 4, 6, 8, 12 and 24 hr by taking blood samples from the cannulated jugular vein (rats) or through a capillary, guided in retro-orbital plexus (mice).

[6] = In vivo pharmacokinetic properties in rats (IV and PO); parameters: species or system male Sprague Dawley rats
Description: as §2, §3
Surgical Procedure for Jugular Vein Cannulation of Rats: Rats were anaesthetized with a single dose of ketamine 50 mg/kg i.p.+xylazine 6 mg/kg i.p. The right jugular vein was exposed, a loose ligature was placed caudally, and the cranial end of vein was ligated. A small incision was made between the ligatures into which the catheter (polyethylene 50 tubing of internal diameter 0.58 mm and outer diameter 0.96 mm) was inserted. The catheter was secured in place by tying the loose ligature around the catheterized vessel. A small incision was made in the scapular region to serve as the exit site of the catheter. The catheter was subcutaneously tunneled and exteriorized through scapular incision. A stay suture was placed in the scapular area. Patency was tested, and catheter was filled with a locking solution (heparinized saline) and sealed with a stainless steel plug. The incision was then sutured with sterile suturing material. Anti-septic solution was applied to the sutured site and animal was placed back in the home cage.
as §4
To evaluate pharmacokinetic properties of oral delivery, rats (male Sprague Dawley rats) or mice (C5Bl/6J) were administered 10 mg compound/kg animal weight by mouth. The concentration of compound in the plasma of the animals was evaluated at 0.25, 0.5, 1, 2, 4, 6, 8, 12 and 24 hr by taking blood samples from the cannulated jugular vein (rats) or through a capillary, guided in retro-orbital plexus (mice).

CC(C)(C)c1cc(-c2cc(-c3ccc(C(=O)N4CCC(O)CC4)cc3Cl)ccn2)ccn1 [Compound 1, (4-(2′-(tert-butyl)-[2,4′-bipyridin]-4-yl)-3-chlorophenyl)(4-hydroxypiperidin-1-yl)methanone]
IC50 [1]: ≤ 1000 nM

CC(C)(C)c1cc(-c2ccnc(-c3ccc(C(=O)N4CCC(O)CC4)cc3Cl)c2)ccn1 [Compound 2, (4-(2′-(tert-butyl)-[4,4′-bipyridin]-2-yl)-3-chlorophenyl)(4-hydroxypiperidin-1-yl)methanone]
IC50 [1]: ≤ 500 nM

CC(C)(C)c1cc(-c2cccc(-c3ccc(C(=O)N4CCC(O)CC4)cc3Cl)n2)ccn1 [Compound 3, (4-(2′-(tert-butyl)-[2,4′-bipyridin]-6-yl)-3-chlorophenyl)(4-hydroxypiperidin-1-yl)methanone]
IC50 [1]: ≤ 1000 nM

CC(C)(C)c1cc(-c2cncc(-c3ccc(C(=O)N4CCC(O)CC4)cc3Cl)c2)ccn1 [Compound 4, (4-(2′-(tert-butyl)-[3,4′-bipyridin]-5-yl)-3-chlorophenyl)(4-hydroxypiperidin-1-yl)methanone]
IC50 [1]: ≤ 100 nM

CC(C)(C)c1cc(-c2cccc(-c3ccc(C(=O)N4CCC(O)CC4)cc3Cl)c2)ccn1 [Compound 5, (3′-(2-(tert-butyl)pyridin-4-yl)-2-chloro-[1,1′-biphenyl]-4-yl)(4-hydroxypiperidin-1-yl)methanone]
IC50 [1]: ≤ 100 nM

CC(C)(C)c1cc(-c2ccnc(-c3ccc(C(=O)N4CCC(O)CC4)cc3Cl)n2)ccn1 [Compound 6, (4-(4-(2-(tert-butyl)pyridin-4-yl)pyrimidin-2-yl)-3-chlorophenyl)(4-hydroxypiperidin-1-yl)methanone]
IC50 [1]: ≤ 1000 nM

CC(C)(C)c1cc(-c2nccc(-c3ccc(C(=O)N4CCC(O)CC4)cc3Cl)n2)ccn1 [Compound 7, (4-(2-(2-(tert-butyl)pyridin-4-yl)pyrimidin-4-yl)-3-chlorophenyl)(4-hydroxypiperidin-1-yl)methanone]
IC50 [1]: ≤ 1000 nM

CC(C)(C)c1cc(-c2cc(-c3ccc(C(=O)N4CCC(O)CC4)cc3Cl)ncn2)ccn1 [Compound 8, (4-(6-(2-(tert-butyl)pyridin-4-yl)pyrimidin-4-yl)-3-chlorophenyl)(4-hydroxypiperidin-1-yl)methanone]
IC50 [1]: ≤ 1000 nM

CC(C)(C)c1cc(-c2cncc(-c3ccc(C(=O)N4CCC(O)CC4)cc3Cl)n2)ccn1 [Compound 9, (4-(6-(2-(tert-butyl)pyridin-4-yl)pyrazin-2-yl)-3-chlorophenyl)(4-hydroxypiperidin-1-yl)methanone]
IC50 [1]: ≤ 1000 nM

COc1ncc(-c2ccnc(C(C)(C)C)c2)cc1-c1ccc(C(=O)N2CCC(O)CC2)cc1Cl [Compound 10, (4-(2′-(tert-butyl)-6-methoxy-[3,4′-bipyridin]-5-yl)-3-chlorophenyl)(4-hydroxypiperidin-1-yl)methanone]
IC50 [1]: ≤ 3000 nM

CC(C)NC(=O)Nc1ccc(-c2cncc(-c3ccnc(C(C)(C)C)c3)c2)c(Cl)c1 [Compound 11, 1-(4-(2′-(tert-butyl)-[3,4′-bipyridin]-5-yl)-3-chlorophenyl)-3-isopropylurea]
IC50 [1]: ≤ 1000 nM

CC(C)(C)c1cc(-c2cncc(-c3ccc(C(=O)N4CCC(O)C(O)C4)cc3Cl)c2)ccn1 (centres unmarked) [drawing 423]
I: kinetic solubility class [2]: MEDIUM (10 to 60 μg/mL=Medium)
G: half-life human liver microsomes [3]: 21.4 min
H: half-life of mouse liver microsomes [4]: 56.5 min

N-(4-(2′-(tert-butyl)-[3,4′-bipyridin]-5-yl)-3-chlorophenyl)-isopropylsulfamoyl urea [Compound Z-812]
Intravenous Delivery (IV) AUC0-last ([5]; IV, 2 mg/kg): 1150 ng·h/mL
Intravenous Delivery (IV) CL ([5]; IV, 2 mg/kg): 28.6 mL/min/kg
Intravenous Delivery (IV) T1/2 ([5]; IV, 2 mg/kg): 1.12 h
Intravenous Delivery (IV) Vd ([5]; IV, 2 mg/kg): 2.78 L/kg
% F (Bioavailability of oral delivery) ([5]; PO 10 mg/kg vs IV 2 mg/kg): 52%
Oral Administration (PO) AUC0-last ([5]; PO, 10 mg/kg): 3000 ng·h/mL
Oral Administration (PO) T1/2 ([5]; PO, 10 mg/kg): 4.21 h
Oral Administration (PO) Tmax ([5]; PO, 10 mg/kg): 15 min
Intravenous Delivery (IV) CL ([6]; IV, 2 mg/kg): 53.5 mL/min/kg
Intravenous Delivery (IV) T1/2 ([6]; IV, 2 mg/kg): 1.87 h
Intravenous Delivery (IV) Vd ([6]; IV, 2 mg/kg): 8.65 L/kg
% F (Bioavailability of oral delivery) ([6]; PO 10 mg/kg vs IV 2 mg/kg): 0.65%
Oral Administration (PO) AUC0-last ([6]; PO, 10 mg/kg): 18 ng·h/mL
Oral Administration (PO) T1/2 ([6]; PO, 10 mg/kg): 1.35 h
Oral Administration (PO) Tmax ([6]; PO, 10 mg/kg): 19.8 min
